US8778961B2, “O-methylated rapamycin derivatives for alleviation and inhibition of lymphoproliferative disorders” (The Trustees of the University of Pennsylvania, priority 2000, dated 2014)
Several values for one entry are separate records, joined by “and”; a condition that tells them apart may be missing. Identical values can stand only once.

Tests used:
[1] = tested on: HTLV-I (+) T-cell lines ATL-2, C10MJ2, HUT102B; settings: Zhang et al., 1999, Leukemia Res. 23:373-384; cited from earlier work
15A tumors = assay: inhibition of tumor establishment in SCID mice; type: in vivo
Method: (§1) Establishment and passaging of the xenotransplanted tumors was performed as described (Douglas et al., 1998, Cytometry 32:57-65; Kawamata et al., 1998, Blood 91:561-569; Pepper et al., 1998, Leuk. Res. 22:439-444). To deplete macrophages and NK cells and to enhance tumor engraftment, SCID mice were injected intraperitoneally with 30-45 milligrams per kilogram of etoposide (Bedford Laboratories, Bedford, Ohio) 4 days prior to implantation of the human EBV^+ B-cell lines (Visonneau et al., 1998, Am. J. Path. 152:1299-1311). Ten million cells of each line employed (see results) were inoculated into mice either intraperitoneally or subcutaneously in 200 microliters of Dulbecco's Phosphate Buffered Saline (DPBS; BioWhittaker, Walkersville, Md.). Ascites or palpable subcutaneous tumors developed 3-5 weeks after cell injection.
(§2) Tumor treatment and growth inhibition experiments were performed using fragments of the established subcutaneous tumors (Pasqualucci et al., 1995, Blood 85:2139-2146, Visonneau et al., 1998, Am. J. Path. 152:1299-1311). For this purpose, mice were anesthetized with KETALAR™ (ketamine, Parke-Davis, Morris Plains, N.J.) by intraperitoneal injection of 100 milligrams per kilogram. Next, the primary tumor was aseptically removed and freed from necrotic, fatty and connective tissue and divided into small pieces of roughly equal size and 3-4 pieces per mouse were injected subcutaneously. Treatment of established tumors with SDZ RAD was started when tumors reached 5 millimeters diameter. In growth inhibition experiments, the treatment was initiated 3 days prior to the tumor implantation. Tumor volume in all experiments was determined from the equation: volume=0.4ab^2, where a and b designate respectively long and short diameter of the tumor. The transplanted mice were monitored for tumor growth for a period of up to 2 months. Five milligrams per kilogram of SDZ RAD was administered once a day by gavage as described (Schuurman et al., 1997, Transplantation 64:32-5; Schuler et al. 1997, Transplantation 64:36-42).
(§3) Mice were sacrificed by exposure to FORANE™ (isoflurane, Ohmeda, Liberty Place, N.J.) on day 29 in the drug toxicity study, on day 40-55 in the tumor growth inhibition study or when tumors achieved approximately 2 centimeter diameter, or when ulceration of the skin, signs of severe respiratory distress, weakness, or lethargy appeared. Complete autopsy was performed on all mice at the end of the study regardless of their appearance. Tumor and internal organs (spleen, liver, lung, heart, kidney, small and large intestines, femoral bone for bone marrow) were fixed in 10% (v/v) formalin, embedded in paraffin, cut into […] sections, transferred to glass slides, and stained with hematoxylin and eosin. Representative tumor fragments were stained immunohistochemically by standard streptavidin-biotin complex technique using commercially available reagents (Research Genetics, Huntsville, Ala.), antibodies: anti-CD20 (L-26) and LMP-1 (both from DAKO, Carpinteria, Calif.) and Ki67 (mib1; Immunotech, Westbrook, Me.). EBV-encoded RNA (EBER-1), and detected using commercially available reagents.
(§4) Because SDZ RAD, when used as an immunosuppressive agent, is administered chronically to transplant patients, its main therapeutic impact on PTLDs may be to inhibit their development rather than to alleviate the clinically symptomatic cases. To test if SDZ RAD can inhibit establishment of PTLD-like lymphomas, daily treatment with 5 milligrams per kilogram body weight of the drug was initiated 3 days prior to the tumor implantation. […] On day 25, the treated tumors measured in average 38 cubic millimeters, the untreated approximately 1940 cubic millimeters. On day 45, the median volume of the treated tumor was 480 cubic millimeters. In 20A tumors, 6 out of 11 tumors were not detectable on day 25; the median volume of the remaining 5 was 20 cubic millimeters. The average untreated tumor measured 210 cubic millimeters on that day. […]

20A tumors = assay: inhibition of tumor establishment in SCID mice; type: in vivo
Method: as §1, §2, §3, §4

A1 tumors = assay: inhibition of tumor establishment in SCID mice; type: in vivo
Method: as §1, §2, §3, §4

[2] = day 25, treatment from 3 days prior to implantation

CO[C@H]1C[C@@H]2CC[C@@H](C)[C@@](O)(O2)C(=O)C(=O)N2CCCC[C@H]2C(=O)O[C@H]([C@H](C)C[C@@H]2CC[C@@H](OCCO)[C@H](OC)C2)CC(=O)[C@H](C)/C=C(\C)[C@@H](O)[C@@H](OC)C(=O)[C@H](C)C[C@H](C)/C=C/C=C/C=C/1C [SDZ RAD, 40-O-(2-hydroxy)ethyl-rapamycin]
response of cell lines to the drug [1]: non-responsive
effect on tumor growth and establishment (15A tumors; 5 milligrams per kilogram body weight daily, initiated 3 days prior to tumor implantation): profoundly delayed the tumor growth, but was unable to inhibit the tumor establishment
average treated tumor volume (15A tumors; [2]): 38 cubic millimeters
median volume of the treated tumor (15A tumors; day 45, treatment from 3 days prior to implantation): 480 cubic millimeters
treated mice with no signs of tumor (establishment completely inhibited) (20A tumors; 11 treated mice, microscopic evaluation revealed no malignant cells): Five and 5/11
median volume of the remaining 5 tumors (20A tumors; day 25): 20 cubic millimeters
tumors not detectable (20A tumors; [2]): 6 out of 11
volume of treated tumors (none exceeded) (20A tumors; day 45): ≤ 150 cubic millimeters
tumor detection in the 8 treated mice (A1 tumors; day 29, treatment from 3 days prior to implantation): no tumor could be detected
mice with no evidence of tumor (establishment completely inhibited) (A1 tumors; day 53, 8 treated mice): 5 and 5/8
mice with small, histologically confirmed lymphomas (A1 tumors; day 53, 8 treated mice): 3
volume of the small lymphomas (A1 tumors; day 53, the 3 mice with lymphoma): < 5 cubic millimeters
